# Experimental data: patent US20050063956A1, “Method and device for attracting insects” (Colorado State University Research Foundation, priority 1998, published 2005)
# “Also recorded” adds a separate entry of the source.
# Tested on: Reticulitermes tibialis
# Assay: T-tube choice-test behavioral bioassay with CO2
# Type: in vivo
# Protocol: Behavioral bioassay apparatus: The choice-test bioassay apparatus was constructed from a glass T-tube (5 mm inside diameter, 5 mm stem, with each branch 4.5 cm long). Each branch of the ‘T’ was bent downward (2.5 cm from the junction of the ‘T’) at a 45° angle to form a pitfall trap. A 5 mm NMR cap (cat. no. 100-0050, Drummond Scientific, Broomall, Pa.) with a 1 mm pinhole in it was firmly pushed over the end of each bent branch. A 25 cm length of Teflon tubing (0.8 mm inside diameter) was inserted 3 mm into the hole in each NMR cap and the other end of the tubing was connected to a 35 ml polyethylene syringe (cat. no. 106-0490, Sherwood Medical, St. Louis, Mo.). The two 35-ml syringes were connected to a syringe pump which was adjusted to provide an airflow of 1 ml per min into each choice arm of the bioassay apparatus.
# Mixtures of CO2 and ambient air were tested to determine the termite response to a range of CO2 concentrations. […] The CO2 concentration of the syringes was determined by using GC-MS-SIM analysis (see below) before each bioassay. […]
# Procedure: For bioassays, termite workers were collected from plastic tubs by using a camel's hair brush and were placed into a holding container constructed from a 3 cm length of Teflon tubing (8 mm inside diameter). […] Bioassays were conducted for 15 min, after which the number of termites in each pitfall was recorded. […]
compound,measurement,setting,value
"O=C=O [CO2, carbon dioxide]","termite choice, CO2 side versus ambient air control side","5 mmol/mol CO2 versus ambient air, 15 min",significantly greater than the number that moved to the control side; also recorded: chose the mmol/mol CO2 side significantly more often; also recorded: Significantly more termites (p<0.05) were attracted to the side containing 5 mmol/mol CO2 than to the control side
same,CO2 concentration of best attraction,in vivo,5 mmol per mol
